Results: patent US10933061B2 (Shepherd Therapeutics, Inc., priority 2017, dated 2021)
Values joined by “and” are separate entries in the source; they are usually repeats but may differ in a detail not shown here. Equal entries are not always repeated. Where two headings read alike, the source gives them in different places. Each block holds one compound with its values, some of them ahead of it.

What was measured:
[1] = tested on: CCC-5 cholangiocarcinoma cells; assay: Chou-Talalay combination assay, Cell Titer Glo; format: cell-based; conditions: combination with pyrvinium pamoate, 72 hour incubation
Description: (§1) Following a 72 hour incubation, cell viability was determined using Cell Titer Glo.

[2] = tested on: TFK-1 cholangiocarcinoma cells; assay: Chou-Talalay combination assay, Cell Titer Glo; format: cell-based; conditions: combination with pyrvinium pamoate, 72 hour incubation
Description: as §1

[3] = tested on: SK-LMS-1 leiomyosarcoma cells; assay: Chou-Talalay combination assay, Cell Titer Glo; format: cell-based; conditions: combination with pyrvinium pamoate, 72 hour incubation
Description: as §1

[4] = tested on: SK-UT-1 leiomyosarcoma cells; assay: Chou-Talalay combination assay, Cell Titer Glo; format: cell-based; conditions: 72 hour incubation; for CI range: combination with pyrvinium pamoate
Description: as §1

[5] = tested on: SK-UT-1B leiomyosarcoma cells; assay: Chou-Talalay combination assay, Cell Titer Glo; format: cell-based; conditions: combination with pyrvinium pamoate, 72 hour incubation
Description: as §1

LO-68 mesothelioma cells = assay: Chou-Talalay combination assay, Cell Titer Glo; format: cell-based; conditions: combination with pyrvinium pamoate, 72 hour incubation
Description: as §1

JU-77 mesothelioma cells = assay: Chou-Talalay combination assay, Cell Titer Glo; format: cell-based; conditions: combination with pyrvinium pamoate, 72 hour incubation
Description: as §1

[6] = tested on: Hs766t pancreatic carcinoma cells; assay: Chou-Talalay combination assay, Cell Titer Glo; format: cell-based; conditions: combination with pyrvinium pamoate, 72 hour incubation
Description: as §1

[7] = tested on: HepG2 hepatocellular carcinoma cells; assay: Chou-Talalay combination assay, Cell Titer Glo; conditions: combination with pyrvinium pamoate, 72 hour incubation
Description: as §1

[8] = tested on: HepG2-C3A hepatocellular carcinoma cells; assay: Chou-Talalay combination assay, Cell Titer Glo; conditions: combination with pyrvinium pamoate, 72 hour incubation
Description: as §1

[9] = tested on: BxPC-3 pancreatic carcinoma cells; assay: Chou-Talalay combination assay, Cell Titer Glo; conditions: 72 hour incubation; for CI range: combination with pyrvinium pamoate
Description: as §1

[10] = tested on: GIST-1 gastrointestinal stromal tumor cells; assay: Chou-Talalay combination assay, Cell Titer Glo; format: cell-based; conditions: combination with pyrvinium pamoate, 72 hour incubation
Description: as §1

[11] = tested on: NCI-H295R adrenocortical carcinoma cells; assay: Chou-Talalay combination assay, Cell Titer Glo; format: cell-based; conditions: combination with pyrvinium pamoate, 72 hour incubation
Description: as §1

[12] = tested on: SW13 adrenocortical carcinoma cells; assay: Chou-Talalay combination assay, Cell Titer Glo; format: cell-based; conditions: combination with pyrvinium pamoate, 72 hour incubation
Description: as §1

[13] = tested on: UM-Chor1 chordoma cell line; assay: Chou-Talalay combination assay, Cell Titer Glo; format: cell-based; conditions: combination with pyrvinium pamoate, 72 hour incubation
Description: as §1

[14] = tested on: HCT116 colorectal carcinoma cells; assay: Chou-Talalay combination assay, Cell Titer Glo; format: cell-based; conditions: combination with pyrvinium pamoate, 72 hour incubation
Description: as §1

[15] = tested on: Colo-205 colorectal carcinoma cells; assay: Chou-Talalay combination assay, Cell Titer Glo; format: cell-based; conditions: combination with pyrvinium pamoate, 72 hour incubation
Description: as §1

[16] = tested on: Flo-1 esophageal carcinoma cells; assay: Chou-Talalay combination assay, Cell Titer Glo; format: cell-based; conditions: 72 hour incubation; for CI range: combination with pyrvinium pamoate
Description: as §1

[17] = tested on: OE-33 esophageal carcinoma cells; assay: Chou-Talalay combination assay, Cell Titer Glo; format: cell-based; conditions: combination with pyrvinium pamoate, 72 hour incubation
Description: as §1

[18] = tested on: TC-32 Ewing's sarcoma cells; assay: Chou-Talalay combination assay, Cell Titer Glo; format: cell-based; conditions: combination with pyrvinium pamoate, 72 hour incubation
Description: as §1

[19] = tested on: TC-71 Ewing's sarcoma cells; assay: Chou-Talalay combination assay, Cell Titer Glo; format: cell-based; conditions: combination with pyrvinium pamoate, 72 hour incubation
Description: as §1

[20] = tested on: Kato-III gastric carcinoma cells; assay: Chou-Talalay combination assay, Cell Titer Glo; format: cell-based
Description: as §1

[21] = tested on: SNU-16 gastric carcinoma cells; assay: Chou-Talalay combination assay, Cell Titer Glo; format: cell-based; conditions: 72 hour incubation; for CI range: combination with pyrvinium pamoate
Description: as §1

[22] = tested on: CHP-212 neuroblastoma cells; assay: Chou-Talalay combination assay, Cell Titer Glo; format: cell-based; conditions: combination with pyrvinium pamoate, 72 hour incubation
Description: as §1

[23] = tested on: COV362 ovarian carcinoma cells; assay: Chou-Talalay combination assay, Cell Titer Glo; format: cell-based; conditions: combination with pyrvinium pamoate, 72 hour incubation
Description: as §1

[24] = tested on: TOV-112D ovarian carcinoma cells; assay: Chou-Talalay combination assay, Cell Titer Glo; format: cell-based; conditions: combination with pyrvinium pamoate, 72 hour incubation
Description: as §1

[25] = tested on: Rh30 rhabdomyosarcoma cells; assay: Chou-Talalay combination assay, Cell Titer Glo; format: cell-based; conditions: combination with pyrvinium pamoate, 72 hour incubation
Description: as §1

[26] = tested on: Rh41 rhabdomyosarcoma cells; assay: Chou-Talalay combination assay, Cell Titer Glo; format: cell-based; conditions: combination with pyrvinium pamoate, 72 hour incubation
Description: as §1

[27] = tested on: carcinoid tumor cell line STC-1; assay: Chou-Talalay combination assay, Cell Titer Glo; format: cell-based; conditions: combination with pyrvinium pamoate, 72 hour incubation
Description: as §1

[28] = tested on: SK-N-AS neuroblastoma cells; assay: Chou-Talalay combination assay, Cell Titer Glo; format: cell-based; conditions: SK-N-AS; combination with pyrvinium pamoate; 72 hour incubation
Description: as §1

[29] = tested on: rare cancer tumor cell lines; assay: Cell viability, panel of rare cancer tumor cell lines; format: cell-based
Description: In all cases, including those described below, the viable cells were determined using the CellTiter Glo® kit and a dose response curve to calculate the IC50 was generated using the PRISM software.

[30] = Kato-III, combination with pyrvinium pamoate, 72 hour incubation

SMILES: Nc1ccn([C@@H]2O[C@H](CO)[C@@H](O)C2(F)F)c(=O)n1 [Gemcitabine]
CI range [1]: 0.008-0.729
CI range [2]: 0.290-0.851
CI range [3]: 0.311-0.774
CI range [4]: (0.118-0.888)
CI range [5]: 0.516-0.687
CI range (LO-68 mesothelioma cells): 0.047-0.871
CI range (JU-77 mesothelioma cells): 0.404-0.725
CI range [6]: 0.378-0.822
CI range [7]: 0.613-0.899
CI range [8]: 0.201-0.566
CI range [9]: 0.417-0.851

SMILES: O=P1(NCCCl)OCCCN1CCCl (centres unmarked) [Ifosfamide]
CI range [5]: 0.285-0.315

SMILES: Cc1ccc(NC(=O)c2ccc(CN3CCN(C)CC3)cc2)cc1Nc1nccc(-c2cccnc2)n1 [Imatinib]
CI range [10]: 0.203-0.726

SMILES: CCc1c2c(nc3ccc(OC(=O)N4CCC(N5CCCCC5)CC4)cc13)-c1cc3c(c(=O)n1C2)COC(=O)[C@]3(O)CC [Irinotecan]
CI range [11]: 0.285-0.855
CI range [12]: 0.652-0.827
CI range [13]: 0.580-0.772
CI range [14]: 0.582-0.878
CI range [15]: 0.158-0.866
Synergy with pyrvinium pamoate [16]: No
CI range [17]: 0.438-0.783
CI range [18]: 0.612-0.764
CI range [19]: 0.466-0.803
CI range [20, 30]: 0.258-0.892
Synergy with pyrvinium pamoate [21]: No
CI range [10]: 0.039-0.837
CI range [3]: 0.362-0.885
Synergy with pyrvinium pamoate [4]: No
CI range [5]: 0.235-0.705
CI range [22]: 0.719-0.891
CI range [23]: 0.445-0.697
CI range [24]: 0.414-0.760
CI range [25]: 0.324-0.872
CI range [26]: 0.068-0.711
Synergy with pyrvinium pamoate [9]: No

SMILES: O=C1[O][Pt]2([NH][C@@H]3CCCC[C@H]3[NH]2)[O]C1=O [Oxaliplatin]
CI range [14]: 0.375-0.889
CI range [16]: 0.558-0.871
CI range [17]: 0.447-0.703
CI range [20]: Yes- (0.384-0.781)
CI range [21]: 0.083-0.831 and 0.089-0.851
CI range [6]: 0.340-0.884
CI range [7]: 0.354-0.865
CI range [8]: 0.307-0.870
CI range [9]: 0.254-0.802

SMILES: CC(=O)O[C@H]1C(=O)[C@@]2(C)[C@H]([C@H](OC(=O)c3ccccc3)[C@]3(O)C[C@H](OC(=O)[C@H](O)[C@@H](NC(=O)c4ccccc4)c4ccccc4)C(C)=C1C3(C)C)[C@]1(OC(C)=O)CO[C@@H]1C[C@@H]2O [Paclitaxel]
CI range [11]: 0.571-0.887
CI range [12]: 0.552-0.870
CI range [27]: 0.479-0.873
CI range [1]: 0.255-0.847 and 0.296-0.785
CI range [2]: 0.277-0.894
CI range [13]: 0.573-0.862
CI range [16]: 0.640-0.888
CI range [17]: 0.527-0.896
CI range [18]: 0.586-0.884
CI range [19]: 0.254-0.721
CI range [20, 30]: 0.076-0.898
CI range [21]: 0.178-0.820
CI range [10]: 0.399-0.808
CI range [3]: 0.078-0.847
CI range [4]: (0.089-0.330)
CI range [5]: 0.262-0.773
CI range [28]: 0.367-0.857
CI range [22]: 0.545-0.868
CI range [23]: 0.451-0.761
CI range [24]: 0.104-0.877
CI range [6]: 0.232-0.830
CI range [25]: 0.362-0.829
CI range [26]: 0.073-0.876
CI range [9]: 0.613-0.899

SMILES: CCC1=C[C@@H]2CN(C1)Cc1c([nH]c3ccccc13)[C@@](C(=O)OC)(c1cc3c(cc1OC)N(C)[C@H]1[C@@](O)(C(=O)OC)[C@H](OC(C)=O)[C@]4(CC)C=CCN5CC[C@]31[C@@H]54)C2 [Vinorelbine]
CI range (LO-68 mesothelioma cells): 0.163-0.845
CI range (JU-77 mesothelioma cells): 0.454-0.717

IC50 ([29]; several rare cancer tumor cell lines, 72 hours, read-out: IC50s ranging): 2 to 1000 nM
SMILES: Cc1cc(/C=C/c2ccc3cc(N(C)C)ccc3[n+]2C)c(C)n1-c1ccccc1 [pyrvinium pamoate, 3-carboxy-1-[(3-carboxy-2-oxidonaphthalen-1-yl)methyl]naphthalen-2-olate;2-[(E)-2-(2,5-dimethyl-1-phenylpyrrol-3-yl)ethenyl]-N,N,1-trimethylquinolin-1-ium-6-amine]
growth of multiple rare cancer cell lines ([29]; FIG. 14): inhibits growth
